Experimental data reported in PubChem BioAssay (NCI).
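Five compound concentrations were applied to cells in 96-well plates for 48 hours; endpoints were derived by simple linear interpolation of the resulting dose-response curve. TGI is the concentration that stops growth completely.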

What was measured:
Assay in all cases: NCI tumour cell line growth inhibition, 48 h
786-0 renal = system: 786-0 renal
A498 renal = system: A498 renal
A549 NSCLC = system: A549 NSCLC
ACHN renal = system: ACHN renal
BT-549 breast = system: BT-549 breast
CAKI-1 renal = system: CAKI-1 renal
CCRF-CEM leukemia = system: CCRF-CEM leukemia
COLO 205 colon = system: COLO 205 colon
DU-145 prostate = system: DU-145 prostate
EKVX NSCLC = system: EKVX NSCLC
HCC-2998 colon = system: HCC-2998 colon
HCT-116 colon = system: HCT-116 colon
HCT-15 colon = system: HCT-15 colon
HL-60(TB) leukemia = system: HL-60(TB) leukemia
HOP-62 NSCLC = system: HOP-62 NSCLC
HOP-92 NSCLC = system: HOP-92 NSCLC
HS 578T breast = system: HS 578T breast
HT29 colon = system: HT29 colon
K-562 leukemia = system: K-562 leukemia
KM12 colon = system: KM12 colon
LOX IMVI melanoma = system: LOX IMVI melanoma
M14 melanoma = system: M14 melanoma
MALME-3M melanoma = system: MALME-3M melanoma
MCF7 breast = system: MCF7 breast
MDA-MB-231 breast = system: MDA-MB-231 breast
MDA-MB-435 = system: MDA-MB-435
MDA-N = system: MDA-N
MOLT-4 leukemia = system: MOLT-4 leukemia
NCI-H226 lung = system: NCI-H226 lung
NCI-H23 lung = system: NCI-H23 lung
NCI-H460 lung = system: NCI-H460 lung
NCI-H522 lung = system: NCI-H522 lung
NCI/ADR-RES ovarian = system: NCI/ADR-RES ovarian
OVCAR-3 ovarian = system: OVCAR-3 ovarian
OVCAR-4 ovarian = system: OVCAR-4 ovarian
OVCAR-5 ovarian = system: OVCAR-5 ovarian
OVCAR-8 ovarian = system: OVCAR-8 ovarian
PC-3 prostate = system: PC-3 prostate
RXF 393 renal = system: RXF 393 renal
SF-268 CNS = system: SF-268 CNS
SF-295 CNS = system: SF-295 CNS
SF-539 CNS = system: SF-539 CNS
SK-MEL-2 melanoma = system: SK-MEL-2 melanoma
SK-MEL-28 melanoma = system: SK-MEL-28 melanoma
SK-MEL-5 melanoma = system: SK-MEL-5 melanoma
SK-OV-3 ovarian = system: SK-OV-3 ovarian
SN12C renal = system: SN12C renal
SNB-19 CNS = system: SNB-19 CNS
SNB-75 CNS = system: SNB-75 CNS
SR leukemia = system: SR leukemia
SW-620 colon = system: SW-620 colon
T-47D breast = system: T-47D breast
TK-10 renal = system: TK-10 renal
U251 CNS = system: U251 CNS
UACC-257 melanoma = system: UACC-257 melanoma
UACC-62 melanoma = system: UACC-62 melanoma
UO-31 renal = system: UO-31 renal

Which TGI (786-0 renal) does the source give for `c1cc(-c2ccc(-c3ccc(C4=NCCCN4)cc3)o2)ccc1C1=NCCCN1` here?
Its TGI is over 100 µM.

What about the TGI (A498 renal) of the same compound?
Its TGI is 13.4 µM.

And the TGI (A549 NSCLC)?
Its TGI is over 100 µM.

What about the TGI (ACHN renal) of the same compound?
The TGI was over 100 µM.

And the TGI (BT-549 breast)?
The TGI was over 100 µM.

And the TGI (CAKI-1 renal)?
Its TGI is over 100 µM.

What about the TGI (CCRF-CEM leukemia) of the same compound?
Its TGI is over 100 µM.

And the TGI (COLO 205 colon)?
The TGI was over 100 µM.

What about the TGI (DU-145 prostate) of the same compound?
The TGI was over 100 µM.

What about the TGI (EKVX NSCLC) of the same compound?
Its TGI is over 100 µM.

What about the TGI (HCC-2998 colon) of the same compound?
Its TGI is over 100 µM.

And the TGI (HCT-116 colon)?
The TGI was over 100 µM.

What about the TGI (HCT-15 colon) of the same compound?
The TGI was over 100 µM.

What about the TGI (HL-60(TB) leukemia) of the same compound?
The TGI was over 100 µM.

And the TGI (HOP-62 NSCLC)?
The TGI was over 100 µM.

What about the TGI (HOP-92 NSCLC) of the same compound?
The TGI was over 100 µM.

What about the TGI (HS 578T breast) of the same compound?
Its TGI is over 100 µM.

What about the TGI (HT29 colon) of the same compound?
Its TGI is over 100 µM.

What about the TGI (K-562 leukemia) of the same compound?
The TGI was over 100 µM.

And the TGI (KM12 colon)?
Its TGI is over 100 µM.

And the TGI (LOX IMVI melanoma)?
The TGI was over 100 µM.

And the TGI (M14 melanoma)?
The TGI was over 100 µM.

And the TGI (MALME-3M melanoma)?
Its TGI is over 100 µM.

And the TGI (MCF7 breast)?
The TGI was over 100 µM.

And the TGI (MDA-MB-231 breast)?
The TGI was over 100 µM.

And the TGI (MDA-MB-435)?
The TGI was over 100 µM.

And the TGI (MDA-N)?
The TGI was over 100 µM.

And the TGI (MOLT-4 leukemia)?
Its TGI is over 100 µM.

And the TGI (NCI-H226 lung)?
Its TGI is over 100 µM.

What about the TGI (NCI-H23 lung) of the same compound?
The TGI was over 100 µM.

And the TGI (NCI-H460 lung)?
The TGI was over 100 µM.

What about the TGI (NCI-H522 lung) of the same compound?
Its TGI is over 100 µM.

And the TGI (NCI/ADR-RES ovarian)?
Its TGI is over 100 µM.

And the TGI (OVCAR-3 ovarian)?
The TGI was over 100 µM.

And the TGI (OVCAR-4 ovarian)?
Its TGI is over 100 µM.

And the TGI (OVCAR-5 ovarian)?
Its TGI is over 100 µM.

And the TGI (OVCAR-8 ovarian)?
Its TGI is over 100 µM.

And the TGI (PC-3 prostate)?
The TGI was over 100 µM.

And the TGI (RXF 393 renal)?
The TGI was over 100 µM.

And the TGI (SF-268 CNS)?
Its TGI is over 100 µM.

And the TGI (SF-295 CNS)?
Its TGI is over 100 µM.

What about the TGI (SF-539 CNS) of the same compound?
Its TGI is over 100 µM.

What about the TGI (SK-MEL-2 melanoma) of the same compound?
Its TGI is over 100 µM.

What about the TGI (SK-MEL-28 melanoma) of the same compound?
Its TGI is over 100 µM.

And the TGI (SK-MEL-5 melanoma)?
Its TGI is over 100 µM.

And the TGI (SK-OV-3 ovarian)?
The TGI was over 100 µM.

And the TGI (SN12C renal)?
Its TGI is 95.7 µM.

What about the TGI (SNB-19 CNS) of the same compound?
Its TGI is over 100 µM.

And the TGI (SNB-75 CNS)?
The TGI was over 100 µM.

And the TGI (SR leukemia)?
The TGI was over 100 µM.

What about the TGI (SW-620 colon) of the same compound?
Its TGI is over 100 µM.

And the TGI (T-47D breast)?
The TGI was over 100 µM.

What about the TGI (TK-10 renal) of the same compound?
Its TGI is over 100 µM.

And the TGI (U251 CNS)?
The TGI was over 100 µM.

What about the TGI (UACC-257 melanoma) of the same compound?
Its TGI is over 100 µM.

What about the TGI (UACC-62 melanoma) of the same compound?
Its TGI is over 100 µM.

And the TGI (UO-31 renal)?
The TGI was over 100 µM.
